Literature values in US4127532A, “Novel heptapeptides, intermediates therefor, and compositions and methods employing said heptapeptides” (priority 1977, dated 1978).

Assays:
[1] = system: partially purified brain opiate receptor sites
[2] = injected directly into the brain of the rat

Substance: H-Tyr-Gly-Gly-Phe-Met-OH [methionine enkephalin]
- binding to partially purified brain opiate receptor sites [1]: binds stereo-specifically
- activity in bioassays for opiate activity (opiate activity): very active
- analgesic activity [2]: weak analgesic agent of short duration
